Measured values reported in EP0640095B1, “PROCESS FOR MAKING VANCOMYCIN” (ABBOTT LABORATORIES, priority 1992, dated 1993).
≈ marks a conversion by molar mass, not a printed value.

Experiment: Solubility of vancomycin as a function of pH (base crystallization)
Type: physicochemical
Conditions: pH 9; pH of 9.0 to 9.5
Source text: Prior to the base crystallization step, the pH of the solution must be optimized to maximize the efficiency of the crystallization. […]

**Q.** For CN[C@H](CC(C)C)C(=O)N[C@H]1C(=O)N[C@@H](CC(N)=O)C(=O)N[C@H]2C(=O)N[C@H]3C(=O)N[C@H](C(=O)N[C@H](C(=O)O)c4cc(O)cc(O)c4-c4cc3ccc4O)[C@H](O)c3ccc(c(Cl)c3)Oc3cc2cc(c3O[C@@H]2O[C@H](CO)[C@@H](O)[C@H](O)[C@H]2O[C@H]2C[C@](C)(N)[C@H](O)[C@H](C)O2)Oc2ccc(cc2Cl)[C@H]1O [vancomycin], which solubility is on record?
**A.** 5 to 20 mg/mL (≈ 3.45 to 13.8 mM)
